# Results as given in US20260216121A1, “3AH-CYCLOPENTA[B]BENZOFURAN-3A-YL AS RAS INHIBITORS” (SJP BIOTEC GMBH, priority 2023, published 2026).
# pIC50: −log10 of the molar value. Like-named read-outs stand apart in the source and are kept apart here.
# How the values were obtained:
# iv (intravenous) PK = assay type: in vivo; settings: for AUCinf(h*nM) Free / C average (nM) free / Cmax (nM), Free / AUC(0-inf) / Cmax / half-life: 2 mg/kg; for AUCinf(h*nM) Free / C average (nM) free / Cmax (nM), Free / half-life: i.v.; for Unbound clearance: Table 4, other values of the table equal the 2 mg/kg i.v. data; for AUC(0-inf) / Cmax / half-life: in vivo, iv; for half-life: read-out: T½ (converted)
# Excerpt: (§1) After administration, a certain amount of drug is in the blood or plasma. Of the total amount in the blood or plasma, some is bound to proteins (or other species in the blood or plasma). Only unbound drug is available e.g., for drug-target interactions. Therefore, the higher the unbound fraction that is available in the blood or plasma, the more is available for binding the drug to a target. The less unbound drug is available in the blood or plasma e.g., because it is involved in competitive binding to, for example, albumin, the less is available for desired drug-target interaction. The protocol for determining the unbound fraction and pharmacokinetics is routine practice and known to the skilled person.
# HT-1080 = experiment: MTT assay for cell viability, HT-1080; assay type: cell-based; settings: Homo sapiens, 48 h, mean from 3 independent experiments
# Procedure: (§2) Cells with RAS mutations were treated with compounds 1 and C-1 for 48 h and cell viability was evaluated by MTT assay. The results shown are mean from 3 independent experiments.
# (§3) HCT-116 were authenticated by Eurofin genomics and cultured in DMEM (10% heat inactivated FBS). sNF96.2 were purchased from ATCC and cultured in DMEM (10% heat inactivated FBS+1 mM Na Pyruvate). ASPC-1 cells were purchased from DSMZ and cultured in RPMI-1640 (10% heat inactivated FBS). NCI-H358 were purchased from ATCC and cultured in RPMI-1640 (10% heat inactivated FBS). T24 and HCT-116 cells were cultured in Mccoy's 5A medium (10% heat inactivated FBS). HT-1080 cells were cultured in EMEM (10% heat inactivated FBS+1 mM Na Pyruvate).
# (§4) Cancer cells were seeded in 96 well plates (5×10^3 cells/well) in 80 μl in growth medium and cultured for 1 day in the incubator. Next day, 20 μl of compounds containing growth medium was added to each well and the cells were cultured for 48 h. After incubation with compounds, 10 μl of MTT solution was added to the wells and incubated for 2-4 hours. After incubation with MTT, solubilization buffer was added and incubated over night. MTT was measured at O.D. 570 nm with a plate reader (Tecan). IC50 calculations by non-linear regression were conducted with GraphPad Prism 9.
# NRAS G12V = biological target: T1, NRAS G12V (Homo sapiens, UniProt P01111, G12V); experiment: NanoBiT assay for RAS GTP-loading (LgBit-NRAS G12V / SmBit-CRAF-RBD) in HeLa cells; assay type: cell-based
# T1 construct: expressed in transfected cells; host or cells: HeLa
# T1 sequence (P01111 1-186 G12V limits assumed): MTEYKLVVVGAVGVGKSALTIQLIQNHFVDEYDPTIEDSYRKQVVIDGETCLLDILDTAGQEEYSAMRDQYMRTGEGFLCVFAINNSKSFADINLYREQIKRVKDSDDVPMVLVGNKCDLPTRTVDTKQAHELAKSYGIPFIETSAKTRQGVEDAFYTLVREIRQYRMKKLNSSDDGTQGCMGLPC
# Procedure: (§5) NanoBiT assay for the RAS GTP-loading was performed in HeLa cells transfected with LgBit-K, N and HRAS G12V and SmBit-CRAF-RBD. Cells were treated with compounds 1 or C-1 for 2 h in serum-free DMEM (Dulbecco's modified Eagle's Medium). After incubation, the substrate for NanoLuc was added, and the luminescence was measured using a multiplate reader. Data were normalized to cells transfected with the indicated mutant and exposed to DMSO for 2 h. DMSO-treated cells were set as 1. The results shown are mean from 3 independent experiments.
# (§6) HeLa cells were harvested with 0.05% Trypsin/0.02% EDTA in PBS and seeded in 6 well or 12 well cell culture plates at the concentration of 5×10^4 cells in complete DMEM (2 ml for 6 well plate and 1 ml for 12 well plate). After 1 day from seeding, the DNA were transfected with Flag tagged Ras or NanoBiT plasmid using PEI/PBS solution.
# (§7) The plasmids were transfected to HeLa cells and the cells were harvested after 1 day of transfection. The cells were seeded to 96 well white plate. Next day, the medium was changed to serum free DMEM for 2 h with compounds. After incubation, Nano Glo assay was performed. The luminescence was measured using Tecan SPARKS (Tecan). IC50 calculations by non-linear regression were conducted with GraphPad Prism 9.
# HCT-116 = experiment: MTT assay for cell viability, HCT-116; assay type: cell-based; settings: Homo sapiens, 48 h, mean from 3 independent experiments
# Procedure: as §2, §3, §4
# [1] = Unbound fraction in human plasma (equilibrium dialysis); assay type: in vitro ADME; settings: pH 7.4, dialysis 4 hours at 37 °C
# Excerpt: as §1
# HT-Dialysis plates (Model HTD 96 b, Cat #1006) and the dialysis membrane (molecular weight cut off 12-14 KDa, Cat #1101) were purchased from HT Dialysis LLC (Gales Ferry, CT).
# Dialysis Buffer (100 mM sodium phosphate and 150 mM NaCl, pH 7.4±0.1)
# Stop Solution (Acetonitrile containing tolbutamide at 200 ng/mL, labetalol at 200 ng/mL)
# On the day of experiment, the plasma was thawed under running cold tap water and centrifuged at 3220×g for 5 min to remove any clots. The pH value was checked and recorded. […]
# The dialysis membrane was pretreated according to the manufacturer's instructions: the dialysis membrane strips were soaked in ultra-pure water at room temperature for approximately 1 hr. Afterwards, each membrane strip that contains 2 membranes was separated and soaked in ethanol:water (20:80 v:v) for approximately 20 min, after which it was ready for use or was stored in the solution at 2-8° C. for up to 1 month. […]
# The % Unbound, % Bound and % Recovery were calculated using the following equations:
# [formula] […] [formula] • F=Free compound concentration as determined by the calculated concentration on the buffer side of the membrane • T=Total compound concentration as determined by the calculated concentration on the matrix side of the membrane • T0=Total compound concentration as determined by the calculated concentration in matrix before dialysis
# HRAS G12V = biological target: T2, HRAS G12V (Homo sapiens, UniProt P01112, G12V); experiment: NanoBiT assay for RAS GTP-loading (LgBit-HRAS G12V / SmBit-CRAF-RBD) in HeLa cells; assay type: cell-based
# T2 construct: expressed in transfected cells; host or cells: HeLa
# T2 sequence (P01112 1-186 G12V limits assumed): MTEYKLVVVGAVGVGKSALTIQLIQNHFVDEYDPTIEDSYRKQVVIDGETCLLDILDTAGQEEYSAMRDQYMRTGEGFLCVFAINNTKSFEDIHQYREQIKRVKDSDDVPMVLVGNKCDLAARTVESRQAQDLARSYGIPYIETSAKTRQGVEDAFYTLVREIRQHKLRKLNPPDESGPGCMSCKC
# Procedure: as §5, §6, §7
# sNF96.2 = experiment: MTT assay for cell viability, sNF96.2; assay type: cell-based; settings: 48 h, mean from 3 independent experiments
# Procedure: as §2, §3, §4
# T24 = experiment: MTT assay for cell viability, T24; assay type: cell-based; settings: Homo sapiens, T-24, 48 h, mean from 3 independent experiments
# Procedure: as §2, §3, §4
# ASPC1 = experiment: MTT assay for cell viability, ASPC1; assay type: cell-based; settings: Homo sapiens, 48 h, mean from 3 independent experiments
# Procedure: as §2, §3, §4
# KRAS G12V = biological target: T3, KRAS G12V (Homo sapiens, UniProt P01116, G12V); experiment: NanoBiT assay for RAS GTP-loading (LgBit-KRAS G12V / SmBit-CRAF-RBD) in HeLa cells; assay type: cell-based
# T3 construct: expressed in transfected cells; host or cells: HeLa
# T3 sequence (P01116 1-186 isoform P01116-2 G12V limits assumed): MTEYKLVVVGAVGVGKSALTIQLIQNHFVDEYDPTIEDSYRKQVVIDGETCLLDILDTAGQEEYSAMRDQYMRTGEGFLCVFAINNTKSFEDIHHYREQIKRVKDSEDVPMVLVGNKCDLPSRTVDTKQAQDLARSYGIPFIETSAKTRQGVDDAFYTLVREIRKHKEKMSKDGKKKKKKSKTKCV
# Procedure: as §5, §6, §7
# H358 = experiment: MTT assay for cell viability, H358; assay type: cell-based; settings: Homo sapiens, NCI-H358, 48 h, mean from 3 independent experiments
# Procedure: as §2, §3, §4
# oral PK = assay type: in vivo; settings: for AUC(0-inf) / Cmax / average free concentration at 24 h / half-life: in vivo; for average free concentration at 24 h: read-out: C average (nM) free; for half-life: read-out: T½ (converted)
# Excerpt: as §1
# [2] = IC50 (nM, KRAS G12V), as listed in the PK tables 1-4, assay not named
SMILES,AUCinf(h*nM) Free (iv (intravenous) PK) [nM·h],C average (nM) free (iv (intravenous) PK) [nM],"Cmax (nM), Free (iv (intravenous) PK) [nM]",Unbound clearance (iv (intravenous) PK) [mL/min/kg],AUC(0-inf) (iv (intravenous) PK) [µM·h],Cmax (iv (intravenous) PK) [nM],half-life (iv (intravenous) PK) [min],IC50 (HT-1080) [nM],IC50 (HCT-116) [nM],"fraction unbound at 4 h, 2 µM [1]",IC50 (sNF96.2) [nM],IC50 (T24) [nM],IC50 (ASPC1) [nM],IC50 (KRAS G12V; [2]) [nM],IC50 (H358) [nM],AUCinf(h*nM) Free (oral PK; 50 mg/kg) [nM·h],"Cmax (nM), Free (oral PK; 50 mg/kg) [nM]",AUC(0-inf) (oral PK; 50 mg/kg) [µM·h],Cmax (oral PK; 50 mg/kg) [nM],average free concentration at 24 h (oral PK; 50 mg/kg) [nM],further results
"COc1cc(OC)c2c(c1)O[C@@]1(c3ccc(C#N)cc3)[C@H](c3cccc(F)c3)C[C@@H](O)[C@@]21O (single isomer, unassigned) [Compound 1]",19.8,0.8,30.4,3683.3,0.8,1200,54,5.39,8.99,0.026,3.69,13.2,11.9,8.5,15.6,378.6,105.3,14.6,4100,15.8,"pIC50 (NRAS G12V): 7.69; pIC50 (HRAS G12V): 7.87; IC50 (KRAS G12V; IC50 (nM) KRAS G12V, NanoBiT, HeLa cells, 2 h in serum-free DMEM): 16.5 nM; half-life (oral PK; 50 mg/kg): 210 min"
"COc1cc(OC)c2c(c1)O[C@@]1(c3ccc(C#N)cc3)[C@H](c3ccccc3)C[C@@H](O)[C@@]21O (single isomer, unassigned) [Compound 2]",51.8,2.2,43.7,1580.9,2.1,1700,240,,,0.025,,,,5.4,,,,,,,"AUCinf(h*nM) Free (oral PK; 10 mg/kg): 26.6 nM·h; Cmax (nM), Free (oral PK; 10 mg/kg): 21.4 nM; AUC(0-inf) (oral PK; 10 mg/kg): 1.1 µM·h; Cmax (oral PK; 10 mg/kg): 900 nM; average free concentration at 24 h (oral PK; 10 mg/kg): 1.1 nM; half-life (oral PK; 10 mg/kg): 78 min"
"COc1cc(OC)c2c(c1)O[C@@]1(c3ccc(Cl)cc3)[C@H](c3ccccc3)C[C@@H](O)[C@@]21O [Compound C-1, (1R,3S,3aR,8bS)-3a-(4-chlorophenyl)-6,8-dimethoxy-3-phenyl-1,2,3,3a-tetrahydro-8bH-cyclopenta[b]benzofuran-1,8b-diol, reference compound]",7.9,0.3,14.5,9689.7,0.9,1700,78,18,21.9,0.009,7.22,28.5,26.6,,40,109.8,34.3,12.6,3900,4.6,"IC50 (NRAS G12V; NanoBiT, HeLa cells, 2 h in serum-free DMEM, read-out: IC50 (nM) NRAS G12V): 61.4 nM; IC50 (HRAS G12V; NanoBiT, HeLa cells, 2 h in serum-free DMEM, read-out: IC50 (nM) HRAS G12V): 53.5 nM; IC50 (KRAS G12V; NanoBiT, HeLa cells, 2 h in serum-free DMEM, read-out: IC50 (nM) KRAS G12V): 56.6 nM; IC50 (KRAS G12V; as listed in the PK tables 1-4, assay not named, read-out: IC50 (nM, KRAS G12V)): 29 nM; AUCinf(h*nM) Free (oral PK; 10 mg/kg): 4.9 nM·h; Cmax (nM), Free (oral PK; 10 mg/kg): 2.3 nM; AUC(0-inf) (oral PK; 10 mg/kg): 0.6 µM·h; Cmax (oral PK; 10 mg/kg): 300 nM; average free concentration at 24 h (oral PK; 10 mg/kg): 0.2 nM; half-life (oral PK; 10 mg/kg): 102 min; half-life (oral PK; 50 mg/kg): 162 min"
